Assay results: PMC8019157 (Antiviral research, 2021)
Where two headings read alike, the source gives them in different places.

Legend:
[1] = molecular target: T1, SERCA1 (Oryctolagus cuniculus, UniProt P04191); experiment: ATP-dependent ^45Ca^2+ accumulation by longitudinal SR vesicles; assay type: biochemical, rabbit; details: for effect on ATP-dependent Ca^2+ transport by SERCA1: 0 – 31.2 μM, 20 min at 37°C
[2] = molecular target: T1, SERCA1; experiment: SERCA1 ATPase activity; assay type: biochemical, rabbit
[3] = cited from earlier work; for Cmax: read-out: plasma Cmax
[4] = molecular target: RyR1 (Oryctolagus cuniculus, UniProt P11716); experiment: Lipid bilayer single channel recordings of purified RyR1; assay type: biochemical, rabbit
RyR1, sequence (P11716 whole entry): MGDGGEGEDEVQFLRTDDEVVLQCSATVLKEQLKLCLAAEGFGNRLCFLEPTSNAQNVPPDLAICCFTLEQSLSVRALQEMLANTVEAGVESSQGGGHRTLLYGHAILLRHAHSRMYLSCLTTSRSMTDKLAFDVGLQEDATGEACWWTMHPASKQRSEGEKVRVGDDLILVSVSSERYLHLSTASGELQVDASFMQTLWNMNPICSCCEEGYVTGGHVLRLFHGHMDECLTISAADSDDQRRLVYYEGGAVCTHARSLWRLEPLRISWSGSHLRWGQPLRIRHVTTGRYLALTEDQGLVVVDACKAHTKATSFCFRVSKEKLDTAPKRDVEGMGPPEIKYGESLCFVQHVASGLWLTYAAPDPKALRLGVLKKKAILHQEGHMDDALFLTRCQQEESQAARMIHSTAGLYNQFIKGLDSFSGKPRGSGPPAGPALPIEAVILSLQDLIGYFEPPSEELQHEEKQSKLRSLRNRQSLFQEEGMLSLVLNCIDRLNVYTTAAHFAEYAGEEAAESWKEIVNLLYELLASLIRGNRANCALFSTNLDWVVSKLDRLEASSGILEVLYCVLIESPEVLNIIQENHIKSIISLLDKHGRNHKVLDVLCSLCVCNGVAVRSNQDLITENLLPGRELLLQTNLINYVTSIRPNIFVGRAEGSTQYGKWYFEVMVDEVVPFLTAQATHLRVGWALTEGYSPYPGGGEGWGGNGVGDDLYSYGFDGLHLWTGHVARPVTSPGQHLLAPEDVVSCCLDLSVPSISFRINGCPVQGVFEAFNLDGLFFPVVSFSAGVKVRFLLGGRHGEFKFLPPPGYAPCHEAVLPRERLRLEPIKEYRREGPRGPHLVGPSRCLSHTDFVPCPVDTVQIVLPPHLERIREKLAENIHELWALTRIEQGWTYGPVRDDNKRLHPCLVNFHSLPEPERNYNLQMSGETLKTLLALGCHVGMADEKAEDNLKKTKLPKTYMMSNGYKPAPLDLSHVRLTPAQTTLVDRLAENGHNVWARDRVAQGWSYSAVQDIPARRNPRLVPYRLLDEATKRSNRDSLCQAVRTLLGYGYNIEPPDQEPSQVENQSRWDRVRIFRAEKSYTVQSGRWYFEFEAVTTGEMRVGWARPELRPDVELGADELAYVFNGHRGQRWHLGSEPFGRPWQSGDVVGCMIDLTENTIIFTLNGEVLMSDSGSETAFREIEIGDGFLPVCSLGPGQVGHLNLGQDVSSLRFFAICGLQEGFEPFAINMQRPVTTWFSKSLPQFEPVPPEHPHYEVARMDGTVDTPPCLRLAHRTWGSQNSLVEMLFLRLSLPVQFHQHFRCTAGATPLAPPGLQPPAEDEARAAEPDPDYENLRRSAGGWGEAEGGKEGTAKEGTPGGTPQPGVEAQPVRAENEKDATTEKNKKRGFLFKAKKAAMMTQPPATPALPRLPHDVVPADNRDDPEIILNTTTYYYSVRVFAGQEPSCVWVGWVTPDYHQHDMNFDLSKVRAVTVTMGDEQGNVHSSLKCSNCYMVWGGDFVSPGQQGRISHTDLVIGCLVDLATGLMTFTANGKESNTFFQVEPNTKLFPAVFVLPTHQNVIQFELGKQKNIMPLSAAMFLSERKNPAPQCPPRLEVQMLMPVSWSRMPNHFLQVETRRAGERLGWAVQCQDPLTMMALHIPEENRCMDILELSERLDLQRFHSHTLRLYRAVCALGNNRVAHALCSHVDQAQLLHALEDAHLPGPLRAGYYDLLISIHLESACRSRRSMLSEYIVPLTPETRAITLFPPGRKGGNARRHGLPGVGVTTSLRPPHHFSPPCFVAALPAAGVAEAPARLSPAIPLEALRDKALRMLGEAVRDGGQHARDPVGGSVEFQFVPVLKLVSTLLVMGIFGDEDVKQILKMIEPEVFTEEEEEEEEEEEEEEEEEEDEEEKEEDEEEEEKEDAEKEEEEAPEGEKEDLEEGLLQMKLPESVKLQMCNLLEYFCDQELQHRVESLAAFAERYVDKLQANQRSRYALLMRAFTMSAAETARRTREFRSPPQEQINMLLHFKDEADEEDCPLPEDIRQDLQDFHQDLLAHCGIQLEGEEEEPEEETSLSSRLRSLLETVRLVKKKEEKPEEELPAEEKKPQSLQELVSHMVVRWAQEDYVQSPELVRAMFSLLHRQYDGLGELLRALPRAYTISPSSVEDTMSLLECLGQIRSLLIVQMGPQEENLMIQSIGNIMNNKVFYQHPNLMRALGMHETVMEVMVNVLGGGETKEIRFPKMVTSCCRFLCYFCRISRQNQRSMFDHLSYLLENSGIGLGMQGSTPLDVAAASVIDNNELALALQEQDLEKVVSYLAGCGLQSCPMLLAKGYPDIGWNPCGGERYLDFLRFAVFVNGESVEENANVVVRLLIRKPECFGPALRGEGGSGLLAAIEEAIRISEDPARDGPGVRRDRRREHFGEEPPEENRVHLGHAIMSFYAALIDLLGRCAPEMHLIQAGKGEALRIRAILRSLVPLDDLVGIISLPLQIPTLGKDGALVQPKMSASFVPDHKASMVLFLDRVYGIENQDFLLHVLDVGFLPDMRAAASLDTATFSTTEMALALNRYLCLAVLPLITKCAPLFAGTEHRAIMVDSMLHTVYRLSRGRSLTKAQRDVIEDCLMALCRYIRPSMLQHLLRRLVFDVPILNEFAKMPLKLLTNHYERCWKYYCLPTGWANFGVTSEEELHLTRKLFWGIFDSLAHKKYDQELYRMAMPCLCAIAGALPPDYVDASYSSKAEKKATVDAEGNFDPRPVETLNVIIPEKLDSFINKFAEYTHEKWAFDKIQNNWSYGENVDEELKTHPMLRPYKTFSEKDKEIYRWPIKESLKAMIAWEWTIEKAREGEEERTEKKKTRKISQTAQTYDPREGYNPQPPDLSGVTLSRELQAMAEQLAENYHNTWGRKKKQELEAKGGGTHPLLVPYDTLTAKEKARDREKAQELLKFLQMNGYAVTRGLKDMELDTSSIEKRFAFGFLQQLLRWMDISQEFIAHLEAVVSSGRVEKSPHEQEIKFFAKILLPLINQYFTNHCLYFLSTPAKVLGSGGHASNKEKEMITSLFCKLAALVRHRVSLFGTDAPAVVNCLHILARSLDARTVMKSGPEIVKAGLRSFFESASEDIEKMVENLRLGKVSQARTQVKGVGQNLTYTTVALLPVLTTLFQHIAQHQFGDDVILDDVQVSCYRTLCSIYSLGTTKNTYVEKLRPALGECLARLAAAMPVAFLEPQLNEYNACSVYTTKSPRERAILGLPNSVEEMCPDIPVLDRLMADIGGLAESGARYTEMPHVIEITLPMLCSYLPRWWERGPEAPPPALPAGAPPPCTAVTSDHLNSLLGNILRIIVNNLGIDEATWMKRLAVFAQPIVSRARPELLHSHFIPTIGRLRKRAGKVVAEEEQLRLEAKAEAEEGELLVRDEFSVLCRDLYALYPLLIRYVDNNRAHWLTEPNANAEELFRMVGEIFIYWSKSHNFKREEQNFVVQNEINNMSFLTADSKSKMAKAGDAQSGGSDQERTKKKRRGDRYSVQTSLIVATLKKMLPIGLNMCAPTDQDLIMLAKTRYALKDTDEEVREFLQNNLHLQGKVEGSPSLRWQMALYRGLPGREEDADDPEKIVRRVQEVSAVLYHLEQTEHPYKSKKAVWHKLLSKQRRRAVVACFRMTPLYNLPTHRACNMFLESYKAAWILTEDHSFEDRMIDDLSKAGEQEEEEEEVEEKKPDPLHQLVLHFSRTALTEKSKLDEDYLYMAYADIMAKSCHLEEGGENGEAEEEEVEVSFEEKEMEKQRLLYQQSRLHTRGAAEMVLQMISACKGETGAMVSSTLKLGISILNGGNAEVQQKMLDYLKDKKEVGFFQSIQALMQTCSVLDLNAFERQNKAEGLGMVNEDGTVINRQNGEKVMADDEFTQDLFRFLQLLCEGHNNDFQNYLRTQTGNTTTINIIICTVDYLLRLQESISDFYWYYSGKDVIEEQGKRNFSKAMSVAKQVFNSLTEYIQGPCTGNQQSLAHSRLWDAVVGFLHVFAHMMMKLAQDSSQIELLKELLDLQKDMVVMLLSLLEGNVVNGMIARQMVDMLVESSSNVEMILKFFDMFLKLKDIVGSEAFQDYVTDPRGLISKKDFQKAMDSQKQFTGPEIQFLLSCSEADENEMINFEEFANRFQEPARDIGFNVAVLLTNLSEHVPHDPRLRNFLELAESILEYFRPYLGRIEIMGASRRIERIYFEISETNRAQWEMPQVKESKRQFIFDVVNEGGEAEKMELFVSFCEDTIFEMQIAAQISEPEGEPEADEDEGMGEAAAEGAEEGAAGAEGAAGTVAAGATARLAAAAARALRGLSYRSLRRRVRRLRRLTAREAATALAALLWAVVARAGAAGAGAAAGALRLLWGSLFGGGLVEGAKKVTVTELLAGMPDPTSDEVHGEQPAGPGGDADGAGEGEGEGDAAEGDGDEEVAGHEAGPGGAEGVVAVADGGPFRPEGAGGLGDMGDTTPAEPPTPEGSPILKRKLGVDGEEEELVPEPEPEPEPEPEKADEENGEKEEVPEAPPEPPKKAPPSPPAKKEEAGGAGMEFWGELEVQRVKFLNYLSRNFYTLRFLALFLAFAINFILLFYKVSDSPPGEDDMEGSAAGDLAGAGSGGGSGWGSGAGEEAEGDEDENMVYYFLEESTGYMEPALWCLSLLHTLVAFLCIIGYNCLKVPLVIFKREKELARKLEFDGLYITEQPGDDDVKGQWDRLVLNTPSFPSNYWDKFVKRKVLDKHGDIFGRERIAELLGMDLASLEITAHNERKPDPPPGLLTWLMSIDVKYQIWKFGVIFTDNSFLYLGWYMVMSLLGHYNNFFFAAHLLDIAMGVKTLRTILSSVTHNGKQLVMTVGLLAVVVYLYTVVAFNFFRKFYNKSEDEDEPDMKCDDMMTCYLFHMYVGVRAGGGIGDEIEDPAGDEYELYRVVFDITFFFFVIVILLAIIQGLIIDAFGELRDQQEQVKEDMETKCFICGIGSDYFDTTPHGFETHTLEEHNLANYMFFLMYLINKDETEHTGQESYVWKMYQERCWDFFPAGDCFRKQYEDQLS

[5] = system: C2C12 skeletal muscle myotubes; experiment: Live-cell Ca^2+ imaging; assay type: cell-based, Mouse
[6] = Drug dissolved in ethanol/water; assay type: physicochemical; details: room temperature (22 °C), HPLC
[7] = molecular target: rabbit skeletal muscle ryanodine receptor Ca^2+ release channel (RyR1) (Oryctolagus cuniculus, UniProt P11716); experiment: [^3H]ryanodine binding/displacement assay with SR membrane vesicles; details: for maximum percent enhancement of [^3H]ryanodine binding over control: 6.7 nM [^3H]ryanodine; for maximum percent enhancement of [^3H]ryanodine binding over control / concentrations that enhanced [^3H]ryanodine binding to RyR1: 2 hr at 37°C
rabbit skeletal muscle ryanodine receptor Ca^2+ release channel (RyR1), sequence (P11716 whole entry): as above

[8] = Atazanavir 1.56 μM cis, 3.3 μM cis Ca^2+
[9] = Atazanavir 3.12 μM cis, 3.3 μM cis Ca^2+
[10] = Atazanavir 6.78 μM cis, 3.3 μM cis Ca^2+
[11] = Atazanavir 20.00 μM cis, 3.3 μM cis Ca^2+
[12] = Atazanavir 30.00 μM cis, 3.3 μM cis Ca^2+
[13] = Atazanavir […] cis, 3.3 μM cis Ca^2+
[14] = up to five minutes after addition
[15] = Ritonavir 2.50 μM cis, 3.0 μM cis Ca^2+
[16] = Ritonavir 5.00 μM cis, 3.0 μM cis Ca^2+
[17] = Ritonavir 12.50 μM cis, 3.0 μM cis Ca^2+
[18] = Ritonavir 20.00 μM cis, 3.0 μM cis Ca^2+
[19] = Ritonavir 31.20 μM cis, 3.0 μM cis Ca^2+
[20] = Ritonavir […] cis, 3.0 μM cis Ca^2+
[21] = 3 μM, antiretroviral-naïve C2C12 cells

COC(=O)N[C@H](C(=O)N[C@@H](Cc1ccccc1)[C@@H](O)CN(Cc1ccc(-c2ccccn2)cc1)NC(=O)[C@@H](NC(=O)OC)C(C)(C)C)C(C)(C)C [ATV, atazanavir]
effect on ATP-dependent Ca^2+ transport by SERCA1 [1]: biphasic | effect on Ca^2+ accumulation via SERCA1 ([1]; > 5 μM): inhibiting | effect on Ca^2+ accumulation via SERCA1 ([1]; up to 5.0 μM): potentiating | effect on ATPase activity of SERCA1 ([2]; 0 – 20 μM, 20 min at 37°C, with and without A23187): biphasic | effect on ATPase activity of SERCA1 ([2]; concentrations higher than 5.0 μM, with and without A23187): decreased the ATPase activity | effect on ATPase activity of SERCA1 ([2]; concentrations of 0.25 and 5.0 μM, with and without A23187): potentiated | plasma Cmax ([3]; 300 mg/day ATV): ~ 2.2 μg/ml | Cmax ([3]; 300 mg/day ATV): ~3 µM | Cmax ([3]; ATV co-administered with RTV (100 mg/day)): ~6 µM | increase in Po of RyR1 ([4]; 1.6 μM cis ATV, within 15 sec, 3.3 μM cis Ca^2+): 40% | effect on conductance of RyR1 ([4]; 3.2 μM cis ATV): did not alter the conductance | Po of RyR1 ([4]; 6.8 μM cis ATV): 0.92 ± 0.10 | conductance of reduced conductance state R’1 ([4]; 6.8 μM cis ATV): 532 ± 34 pS | current amplitude of RyR1 (reduced conductance state R’1) ([4]; 6.8 μM cis ATV): 74 % of maximum | dwell time in the opened state ([4]; 6.8 μM cis ATV, ± 30 mV holding potential): > 25 ms | current amplitude of RyR1 (R’1) ([4]; 20.0 μM and 30.0 μM cis ATV): 74 % of maximum | Closed- maximally opened transitions (Hz) [4, 8]: 789 ± 25 Hz | Dwell time closed state [4, 8]: 1.97 ± 0.03 ms | Dwell time open state [4, 8]: 0.66 ± 0.02 ms | Po (+30 mV) [4, 8]: 0.14 ± 0.01 | Closed- maximally opened transitions (Hz) [4, 9]: 1102 ±22 Hz | Dwell time closed state [4, 9]: 0.62 ± 0.03 ms | Dwell time open state [4, 9]: 2.83 ± 0.08 ms | Po (+30 mV) [4, 9]: 0.56 ± 0.03 | Closed- maximally opened transitions (Hz) [4, 10]: 206 ± 30 Hz | Dwell time closed state [4, 10]: 0.55 ± 0.07 ms | Dwell time open state [4, 10]: 25.12 ± 1.52 ms | Po (+30 mV) [4, 10]: 0.92 ± 0.10 | Closed- maximally opened transitions (Hz) [4, 11]: 750 ± 55 Hz | Dwell time closed state [4, 11]: 2.22 ± 0.15 ms | Dwell time open state [4, 11]: 1.44 ± 0.05 ms | Po (+30 mV) [4, 11]: 0.60 ± 0.04 | Closed- maximally opened transitions (Hz) [4, 12]: 142 ±20 Hz | Dwell time closed state [4, 12]: 5.65 ± 0.06 ms | Dwell time open state [4, 12]: 0.33 ± 0.01 ms | Po (+30 mV) [4, 12]: 0.11 ± 0.01 | Closed- maximally opened transitions (Hz) [4, 13]: 225 ±16 Hz | Dwell time closed state [4, 13]: 0.43 ± 0.05 ms | Dwell time open state [4, 13]: 5.70 ± 0.20 ms | Po (+30 mV) [4, 13]: 0.82 ± 0.04 | effect on Po of RyR1 of concentrations lower than 1.6 μM [4, 14]: did not elicit changes in the Po | Ca^2+ transient in C2C12 cells pretreated with 50 μM ryanodine for 20 min [5]: attenuated the amplitude | diameter of plasma membrane blebs, times larger than that of EFV ([5]; 6 μM): ~ 1.5 × | effect on plasma membrane of C2C12 cells ([5]; 6 μM): blebbing | rate of Ca^2+ transient rise, times faster than that of EFV ([5]; 6 μM): 7.7 × | rate of decay of the Ca^2+ transient, times faster than that of EFV ([5]; 6 μM): 3 x | mean peak amplitude of the Ca^2+ transient ([5]; 6 μM, antiretroviral-naïve C2C12 myotubes): 4.4 ± 0.1 f.u. | response to a second dose in previously exposed C2C12 cells ([5]; second dose 6 μM): did not elicit a second Ca^2+ transient | fraction dissolved in ethanol/water (1:1) [6]: 12.9% | stock concentration in ethanol/water (1:1) [6]: 3.2 mM | EC50 [7]: 14.9 ± 1.4 nM | IC50 [7]: 6200 ± 800 nM | Ki [7]: 1600 ± 200 nM | maximum percent enhancement of [^3H]ryanodine binding over control [7]: 40.5 ± 5.2% | concentrations that enhanced [^3H]ryanodine binding to RyR1 [7]: 1 to 20 nM

CC(C)c1nc(CN(C)C(=O)N[C@H](C(=O)N[C@@H](Cc2ccccc2)C[C@H](O)[C@H](Cc2ccccc2)NC(=O)OCc2cncs2)C(C)C)cs1 [RTV, ritonavir]
effect on ATP-dependent Ca^2+ transport by SERCA1 [1]: dose-dependently inhibited | effect on ATPase activity of SERCA1 ([2]; 0.25 to 20 μM, presence or absence of A23187): dose-dependently decreased | increase in Po of RyR1 ([4]; 720 nM cis RTV, 3.0 μM cis Ca^2+): three-fold | Po of RyR1 ([4]; 3.2 μM cis RTV): 0.15 ± 0.02 | conductance of reduced conductance state R’2 ([4]; 3.2 μM cis RTV): 599 ± 24 pS | current amplitude of RyR1 (R’2) ([4]; 3.2 μM cis RTV): 84 % of maximum | reduction of current amplitude of RyR1 ([4]; 3.2 μM cis RTV): 16% | current amplitude of RyR1 (R’2) ([4]; 31.2 μM cis RTV): 84 % of maximum | Po of RyR1 ([4]; 31.2 μM cis RTV, +30 mV): 0.92 ± 0.01 | Close - maximally opened transitions (Hz) [4, 15]: 998 ± 89 Hz | Dwell time closed state [4, 15]: 1.01 ± 0.22 ms | Dwell time open state [4, 15]: 0.68 ± 0.06 ms | Po (+30 mV) [4, 15]: 0.29 ± 0.03 | Close - maximally opened transitions (Hz) [4, 16]: 762 ± 45 Hz | Dwell time open state [4, 16]: 1.22 ± 0.15 ms | Po (+30 mV) [4, 16]: 0.07 ± 0.04 | Close - maximally opened transitions (Hz) [4, 17]: 828 ± 40 Hz | Dwell time open state [4, 17]: 1.64 ± 0.03 ms | Po (+30 mV) [4, 17]: 0.11 ± 0.03 | Close - maximally opened transitions (Hz) [4, 18]: 848 ± 37 Hz | Dwell time closed state [4, 18]: 10.57 ± 1.24 ms | Dwell time open state [4, 18]: 1.01 ± 0.06 ms | Po (+30 mV) [4, 18]: 0.11 ± 0.02 | Close - maximally opened transitions (Hz) [4, 19]: 880 ± 30 Hz | Dwell time closed state [4, 19]: 0.72 ± 0.09 ms | Dwell time open state [4, 19]: 1.13 ± 0.09 ms | Po (+30 mV) [4, 19]: 0.92 ± 0.01 | Close - maximally opened transitions (Hz) [4, 20]: 773 ± 47 Hz | Dwell time closed state [4, 20]: 4.25 ± 0.11 ms | Dwell time open state [4, 20]: 0.35 ± 0.02 ms | Po (+30 mV) [4, 20]: 0.07 ± 0.01 | effect on Po of RyR1 of concentrations lower than 720 nM [4, 14]: did not elicit changes in the Po | Ca^2+ transient in C2C12 cells pretreated with 50 μM ryanodine for 20 min [5]: attenuated the amplitude | duration of the Ca^2+ transient ([5]; 3 μM): about 20 sec | effect on plasma membrane of C2C12 cells ([5]; 3 μM): blebbing | rate of decay of the Ca^2+ transient, times faster than that of EFV ([5]; 3 μM): 3 x | mean rate of Ca^2+ rise [5, 21]: 0.54 ± 0.06 f.u./sec | peak amplitude of the Ca^2+ transient [5, 21]: 4.3 ± 0.2 f.u | response to a second dose in previously exposed C2C12 cells ([5]; second dose 3 μM): triggered a second Ca^2+ transient | fraction dissolved in ethanol/water (1:1) [6]: 1.5% | stock concentration in ethanol/water (1:1) [6]: 0.39 mM | maximum percent enhancement of [^3H]ryanodine binding over control [7]: 62.3 ± 6.2% | concentrations that enhanced [^3H]ryanodine binding to RyR1 [7]: 1 to 60 nM
